Data from patent US20240272142A1, “METHOD FOR DETERMINING WHITENING EFFICACY OF COSMETIC RAW MATERIAL AND USE THEREOF” (SHENZHEN INSTITUTE FOR DRUG CONTROL (SHENZHEN TESTING …, priority 2023, published 2024).
Values joined by “and” are separate entries in the source; they are usually repeats but may differ in a detail not shown here. Identical values can stand only once.

Tested on: mouse melanoma cells B16-F10
Test: Relative melanin content of B16-F10 cells after 24 h stimulation with α-MSH (Example 1)
Assay type: cell-based
Conditions: absorbance at 405 nm relative to blank group, three replicate values
Experimental: The results in the examples of the present disclosure are all expressed in terms of a relative melanin content: the relative melanin content=absorbance of the experimental group/absorbance of the blank group×100%.
• (1) A cell suspension of B16-F10 cells in a logarithmic growth phase was inoculated into 6-well plates in a cell density of 2×10^5 cells/mL, with an amount being 2 mL in each well, and then added into a 5% carbon dioxide incubator and cultured at a temperature of 37° C. for 24 h. • (2) A medium contained in the 6-well plates was removed, the B16-F10 cells were washed with 2 mL of the PBS, 2 mL of substances from each of the following groups each were added into each well of the 6-well plates, and then cultured in the 5% carbon dioxide incubator at a temperature of 37° C. for 24 h.
Blank group: 2 mL of a basal DMEM was added into each well.
Model group: 2 mL of a-MSH solutions with different concentrations (0.5 μM, 1 μM, 2.5 μM, 5 μM, and 10 μM) were separately added into each well. • (3) Determination of a relative melanin content: the basal DMEM in the 6-well plates was removed by using a sterile pipette, the B16-F10 cells were washed with 2 mL of the PBS, and digested with 400 μL of trypsin; then the digesting was terminated with 1 mL of a complete DMEM; the B16-F10 cells were collected into centrifuge tubes, and centrifuged at 2,500 rpm for 10 min; a resulting supernatant after centrifugation was discarded, the resulting B16-F10 cells were centrifuged with 1,000 μL of the PBS for a second time, 500 μL of a 1 mol/L NaOH solution (containing 10% of DMSO) was added into each of the centrifuge tubes, and subjected to water bath at a temperature of 80° C. for 1 h to obtain a product; 200 μL of the product was transferred into a 96-well plate, an absorbance at 405 nm was determined and calculated to obtain the relative melanin content.

With “α-melanocyte-stimulating hormone [α-MSH]” the Relative melanin content (α-MSH 0.5 μM) was 102.51% and 111.76% and 97.21%, the Relative melanin content (α-MSH 1.0 μM) was 104.65% and 100.54% and 103.16% and the Relative melanin content (α-MSH 2.5 μM) was 98.75% and 98.22% and 102.18%. For the same substance, the Relative melanin content (α-MSH 5.0 μM) was 96.79% and 97.45% and 95.71% and the Relative melanin content (α-MSH 10 μM) was 111.71% and 108.05% and 112.79%.
